Conditions: Liquid, Gas chromatography

CC(C)=CCC[C@@H](C)c1ccc(C)cc1 [(-)-α-curcumene]
Conditions	vapor or sublimation pressure [kPa]
298.15 K	0.00097
310 K	0.003
320 K	0.007
330 K	0.015
340 K	0.032
350 K	0.063
360 K	0.12
370 K	0.21
380 K	0.37
390 K	0.62
400 K	0.99
410 K	1.6
420 K	2.4
430 K	3.5
440 K	5.1
450 K	7.3
460 K	10
470 K	14
480 K	19
490 K	25
500 K	33
510 K	42
520 K	54
530 K	68
540 K	85
548.3 K	101.3

CC(C)=CCC[C@H](C)[C@@H]1C=CC(C)=CC1 [zingiberene]
Conditions	vapor or sublimation pressure [kPa]
298.15 K	0.00081
310 K	0.0025
320 K	0.006
330 K	0.013
340 K	0.028
350 K	0.056
360 K	0.11
370 K	0.19
380 K	0.33
390 K	0.56
400 K	0.91
410 K	1.4
420 K	2.2
430 K	3.3
440 K	4.8
450 K	6.8
460 K	9.6
470 K	13
480 K	18
490 K	24
500 K	31
510 K	41
520 K	52
530 K	66
540 K	83
549.5 K	101.3

C=C1C=C[C@@H]([C@@H](C)CCC=C(C)C)CC1 [β-sesquiphellandrene]
Conditions	vapor or sublimation pressure [kPa]
298.15 K	0.00063
310 K	0.002
320 K	0.0048
330 K	0.011
340 K	0.023
350 K	0.046
360 K	0.087
370 K	0.16
380 K	0.28
390 K	0.47
400 K	0.76
410 K	1.2
420 K	1.8
430 K	2.8
440 K	4
450 K	5.8
460 K	8.2
470 K	11
480 K	15
490 K	20
500 K	27
510 K	35
520 K	45
530 K	57
540 K	71
556.5 K	101.3

From the NIST ThermoML archive (doi:10.1016/j.jct.2019.06.011)
